Read-outs that look alike come from different tables or passages of the source.
What was measured:
BRD4-BD2 = BRD4-BD2 (Homo sapiens (Human), UniProt O60885); experiment: BRD4 AlphaScreen Assay (Example A1), BRD4-BD2; type: binding; conditions: Assay A1, 20 nM BRD4-BD2, 50 nM H4Ac4 peptide; read-out: BRD4 BD-2 enzyme IC50
Protocol: (§1) BRD4-BD1 and BRD4-BD2 assays were conducted in white 384-well polystyrene plate in a final volume of 20 μL for BD1 and 40 μL for BD2. Inhibitors were first serially diluted in DMSO and added to the plate wells before the addition of other reaction components. […] After plate sealing, the plate was incubated in the dark at room temperature for 75 min. before reading on a PHERAstar FS plate reader (BMG Labtech). IC50 determination was performed by fitting the curve of percent control activity versus the log of the inhibitor concentration using the GraphPad Prism 5.0 software.

BRD4-BD1 = BRD4-BD1 (Homo sapiens (Human), UniProt O60885); experiment: BRD4 AlphaScreen Assay (Example A1), BRD4-BD1; type: binding; conditions: Assay A1, 3.8 nM BRD4-BD1, 50 nM H4Ac4 peptide; read-out: BRD4 BD-1 enzyme IC50
Protocol: as §1

KMS.12.BM cells = experiment: KMS.12.BM Cell Viability Assay (Example B1); type: cell-based, human; conditions: 3 days, Cell Titer-GLO, read-out: KMS cellular IC50
Protocol: KMS.12.BM cell line (human myeloma) was purchased from JCRB (Osaka, Japan) and maintained in RPMI with 10% FBS culture medium. To measure the cytotoxic activity of the compounds through ATP quantitation, the KMS.12.BM cells are plated in the RPMI culture medium at 5000 cells/well/per 100 μL into a 96-well polystyrene clear black tissue culture plate (Greiner-bio-one through VWR, NJ), in the presence or absence of a concentration range of test compounds. After 3 days, […] Cell Titer-GLO Luminescent (Promega, Madison, Wis.) cell culture agent is added to each well for 10 min. at room temperature to stabilize the luminescent signal. This determines the number of viable cells in culture based on quantitation of the ATP present, which signals the presence of metabolically active cells.

BET proteins = experiment: BET protein inhibition, assay not specified; conditions: comparison of chiral HPLC peaks

| IC50 (BRD4-BD2) [nM] | IC50 (BRD4-BD1) [nM] | SMILES | IC50 (KMS.12.BM cells; Homo sapiens, KMS-12-BM, 72 h) [nM] | relative activity of separated enantiomers (BET proteins) | IC50 (KMS.12.BM cells) [nM] |
| --- | --- | --- | --- | --- | --- |
| < 100 | < 100 | Cc1noc(C)c1-c1ccc2[nH]c(=O)n3c2c1OCC3c1ccccn1 (racemic) [Example 13, 7-(3,5-Dimethylisoxazol-4-yl)-4-pyridin-2-yl-4,5-dihydroimidazo[1,5,4-de][1,4]benzoxazin-2(1H)-one] | < 1000 | – | – |
| – | – | Cc1noc(C)c1-c1ccc2[nH]c(=O)n3c2c1OCC3c1ccccc1 (single isomer, unassigned) [Example 1A, 7-(3,5-Dimethylisoxazol-4-yl)-4-phenyl-4,5-dihydroimidazo[1,5,4-de][1,4]benzoxazin-2(1H)-one] | – | more active | – |
| – | – | Cc1noc(C)c1-c1ccc2[nH]c(=O)n3c2c1OCC3c1ccccc1 (single isomer, unassigned) [Example 1B, 7-(3,5-Dimethylisoxazol-4-yl)-4-phenyl-4,5-dihydroimidazo[1,5,4-de][1,4]benzoxazin-2(1H)-one] | – | less active | – |
| < 100 | < 100 | Cc1noc(C)c1-c1ccc2[nH]c(=O)n3c2c1OCC3c1ccccn1 (single isomer, unassigned) [Example 15, 7-(3,5-Dimethylisoxazol-4-yl)-4-pyridin-2-yl-4,5-dihydroimidazo[1,5,4-de][1,4]benzoxazin-2(1H)-one] | < 1000 | – | – |
| – | – | Cc1noc(C)c1-c1ccc2nc(N3CC[C@@H](O)C3)n3c2c1OCC3c1cccnc1 (single isomer, unassigned) [Example 159C] | – | – | 1000 to 10000 |
| < 100 | < 100 | Cc1noc(C)c1-c1ccc2[nH]c(=O)n3c2c1OCC3c1ccc(F)cc1 (stereo not shown) [Example 49, 7-(3,5-Dimethylisoxazol-4-yl)-4-(4-fluorophenyl)-4,5-dihydroimidazo[1,5,4-de][1,4]benzoxazin-2(1H)-one] | – | – | – |
| < 100 | < 100 | Cc1noc(C)c1-c1ccc2[nH]c(=O)n3c2c1OCC3c1ccccc1OCC(=O)NCCO (stereo not shown) [Example 50, 2-{2-[7-(3,5-Dimethylisoxazol-4-yl)-2-oxo-1,2,4,5-tetrahydroimidazo[1,5,4-de][1,4]benzoxazin-4-yl]phenoxy}-N-(2-hydroxyethyl)acetamide] | – | – | – |
| < 100 | < 100 | Cc1noc(C)c1-c1ccc2[nH]c(=O)n3c2c1OCC3c1ccccc1OCC(=O)N(C)C (stereo not shown) [Example 51, 2-{2-[7-(3,5-Dimethylisoxazol-4-yl)-2-oxo-1,2,4,5-tetrahydroimidazo[1,5,4-de][1,4]benzoxazin-4-yl]phenoxy}-N,N-dimethylacetamide] | – | – | – |
| < 100 | < 100 | Cc1noc(C)c1-c1ccc2nc(N3CCCC3)n3c2c1OCC3c1ccccc1 (stereo not shown) [Example 54, 7-(3,5-Dimethylisoxazol-4-yl)-4-phenyl-2-pyrrolidin-1-yl-4,5-dihydroimidazo[1,5,4-de][1,4]benzoxazine] | – | – | – |
| < 100 | < 100 | Cc1noc(C)c1-c1ccc2nc(N3CCC(O)CC3)n3c2c1OCC3c1ccccc1 (stereo not shown) [Example 57, 1-[7-(3,5-Dimethylisoxazol-4-yl)-4-phenyl-4,5-dihydroimidazo[1,5,4-de][1,4]benzoxazin-2-yl]piperidin-4-ol] | – | – | – |
| < 100 | < 100 | Cc1noc(C)c1-c1ccc2nc(N3CCCC(O)C3)n3c2c1OCC3c1ccccc1 (stereo not shown) [Example 58, 1-[7-(3,5-Dimethylisoxazol-4-yl)-4-phenyl-4,5-dihydroimidazo[1,5,4-de][1,4]benzoxazin-2-yl]piperidin-3-ol] | – | – | – |
| < 100 | < 100 | Cc1noc(C)c1-c1ccc2nc(N3CC(O)C3)n3c2c1OCC3c1ccccc1 (stereo not shown) [Example 59, 1-[7-(3,5-Dimethylisoxazol-4-yl)-4-phenyl-4,5-dihydroimidazo[1,5,4-de][1,4]benzoxazin-2-yl]azetidin-3-ol] | – | – | – |
| < 100 | < 100 | Cc1noc(C)c1-c1ccc2nc(N3CCN(C(=O)OC(C)(C)C)CC3)n3c2c1OCC3c1ccccc1 (stereo not shown) [Example 60] | – | – | – |
